Results published in patent USRE50082E1, “(5,6-dihydro)pyrimido[4,5-e]indolizines” (NETHERLANDS TRANSLATIONAL RESEARCH CENTER B.V., priority 2014, dated 2024).

system: MOLT-4 cancer cell line; assay: Cell proliferation assay, MOLT-4 cancer cell line (ATPlite); type: cell-based; conditions: Homo sapiens, MOLT-4; 72 hours incubation, ATPlite 1Step; read-out: IC50 MOLT-4 cell proliferation;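 also: luminescence read-out, percent growth versus compound-free DMSO wells as maximum growth, start-of-incubation signal separating growth from cell death, IC50 from logistic curve fit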
Procedure: 5 μL of compound solution was added and the plates were incubated for an additional 72 hours after which 25 μL of ATPlite 1Step™ (PerkinElmer, Groningen, The Netherlands) solution was added to each well. Luminescence was recorded on an Envision multimode reader. The cell signal at the start of incubation was recorded separately in order to distinguish between cell population growth and cell death. In addition, maximum growth was determined by incubation of a duplicate without compound in the presence of 0.4% DMSO. Percentage growth was used as the main y-axis signal. IC50s were fitted by non-linear regression using IDBS XLfit™5 using a 4-parameter logistic curve, yielding a maximum signal, minimum signal, hill-parameter and IC50.

| IC50 | SMILES |
| --- | --- |
| < 50 nM | COc1cc(C(=O)NCC(C)(C)O)ccc1Nc1ncc2c(n1)-n1ccc(C(=O)Nc3c(C)cccc3C)c1CC2 [Example 1, N-(2,6-dimethylphenyl)-2-[4-[(2-hydroxy-2-methyl-propyl)carbamoyl]-2-methoxy-anilino]-5,6-dihydropyrimido[4,5-e]indolizine-7-carboxamide] |
| < 50 nM | Cc1cc(N2CCN(C)CC2)ccc1Nc1ncc2c(n1)-n1ccc(C(=O)Nc3c(C)cccc3Cl)c1CC2 [Example 2, N-(2-chloro-6-methyl-phenyl)-2-[2-methyl-4-(4-methylpiperazin-1-yl)anilino]-5,6-dihydropyrimido[4,5-e]indolizine-7-carboxamide] |
| 50 to 150 nM | COc1cc(N2CCOCC2)ccc1Nc1ncc2c(n1)-n1ccc(C(=O)Nc3c(C)cccc3Br)c1CC2 [Example 3, N-(2-bromo-6-methyl-phenyl)-2-(2-methoxy-4-morpholino-anilino)-5,6-dihydropyrimido[4,5-e]indolizine-7-carboxamide] |
| < 50 nM | CCc1cccc(C)c1NC(=O)c1ccn2c1CCc1cnc(Nc3ccc(N4CCN(C)CC4)cc3)nc1-2 [Example 4, N-(2-ethyl-6-methyl-phenyl)-2-[4-(4-methylpiperazin-1-yl)anilino]-5,6-dihydropyrimido[4,5-e]indolizine-7-carboxamide] |
| < 50 nM | Cc1cccc(Cl)c1NC(=O)c1ccn2c1CCc1cnc(Nc3ccc(N4CCOCC4)nc3C)nc1-2 [Example 5, N-(2-chloro-6-methyl-phenyl)-2-[(2-methyl-6-morpholino-3-pyridyl)amino]-5,6-dihydropyrimido[4,5-e]indolizine-7-carboxamide] |
| 50 to 150 nM | Cc1cccc(C)c1NC(=O)c1ccn2c1CCc1cnc(Nc3ccc(C(=O)NC4CCN(C)CC4)cc3F)nc1-2 [Example 7, N-(2,6-dimethylphenyl)-2-[2-fluoro-4-[(1-methyl-4-piperidyl)carbamoyl]anilino]-5,6-dihydropyrimido[4,5-e]indolizine-7-carboxamide] |
| < 50 nM | CCc1n[nH]c(CC)c1NC(=O)c1ccn2c1CCc1cnc(Nc3ccc(N4CCN(C)CC4)cc3C)nc1-2 [Example 9, N-(3,5-diethyl-1H-pyrazol-4-yl)-2-[2-methyl-4-(4-methylpiperazin-1-yl)anilino]-5,6-dihydropyrimido[4,5-e]indolizine-7-carboxamide] |
| 50 to 150 nM | COc1cc(N2CCN(C)CC2)ccc1Nc1ncc2c(n1)-n1ccc(C(=O)Nc3c(C)cccc3OC)c1CC2 [Example 10, N-(2-methoxy-6-methyl-phenyl)-2-[2-methoxy-4-(4-methylpiperazin-1-yl)anilino]-5,6-dihydropyrimido[4,5-e]indolizine-7-carboxamide] |
| 50 to 150 nM | COc1cc(N2CCN(C)CC2)ccc1Nc1ncc2c(n1)-n1ccc(C(=O)Nc3c(C(C)C)cccc3C(C)C)c1CC2 [Example 11, N-(2,6-diisopropylphenyl)-2-[2-methoxy-4-(4-methylpiperazin-1-yl)anilino]-5,6-dihydropyrimido[4,5-e]indolizine-7-carboxamide] |
| < 50 nM | CCc1nn(CCOC)c(CC)c1NC(=O)c1ccn2c1CCc1cnc(Nc3ccc(OC4CCN(C)CC4)cc3C)nc1-2 [Example 13, N-[3,5-diethyl-1-(2-methoxyethyl)pyrazol-4-yl]-2-[2-methyl-4-[(1-methyl-4-piperidyl)oxy]anilino]-5,6-dihydropyrimido[4,5-e]indolizine-7-carboxamide] |
| 50 to 150 nM | CCOc1cc(C(=O)NC2CCN(C)CC2)ccc1Nc1ncc2c(n1)-n1ccc(C(=O)Nc3c(C)cccc3CC)c1CC2 [Example 14, 2-[2-Ethoxy-4-[(1-methyl-4-piperidyl)carbamoyl]anilino]-N-(2-ethyl-6-methyl-phenyl)-5,6-dihydropyrimido[4,5-e]indolizine-7-carboxamide] |
| < 50 nM | COc1cc(N2CCNCC2)ccc1Nc1ncc2c(n1)-n1ccc(C(=O)Nc3c(C)cccc3C)c1CC2 [Example 17, N-(2,6-dimethylphenyl)-2-(2-methoxy-4-piperazin-1-yl-anilino)-5,6-dihydropyrimido[4,5-e]indolizine-7-carboxamide] |
| < 50 nM | CCc1n[nH]c(CC)c1NC(=O)c1ccn2c1CCc1cnc(Nc3ccc(N4CCNCC4)cc3OC)nc1-2 [Example 18, N-(3,5-diethyl-1H-pyrazol-4-yl)-2-(2-methoxy-4-piperazin-1-ylanilino)-5,6-dihydropyrimido[4,5-e]indolizine-7-carboxamide] |
| < 50 nM | CCc1nn(CCOC)c(CC)c1NC(=O)c1ccn2c1CCc1cnc(Nc3ccc(N4CCNCC4)cc3OC)nc1-2 [Example 19, N-[3,5-diethyl-1-(2-methoxyethyl)pyrazol-4-yl]-2-(2-methoxy-4-piperazin-1-yl-anilino)-5,6-dihydropyrimido[4,5-e]indolizine-7-carboxamide] |
| < 50 nM | COc1cc(N2CCN(C)CC2)ccc1Nc1ncc2c(n1)-n1ccc(C(=O)Nc3c(C)cc(C)cc3C)c1CC2 [Example 22, 2-[2-Methoxy-4-(4-methylpiperazin-1-yl)anilino]-N-(2,4,6-trimethylphenyl)-5,6-dihydropyrimido[4,5-e]indolizine-7-carboxamide] |
| 50 to 150 nM | COc1cc(N2CCN(C)CC2)ccc1Nc1ncc2c(n1)-n1ccc(C(=O)Nc3c(C)cccc3CO)c1CC2 [Example 23, N-[2-(hydroxymethyl)-6-methyl-phenyl]-2-[2-methoxy-4-(4-methylpiperazin-1-yl)anilino]-5,6-dihydropyrimido[4,5-e]indolizine-7-carboxamide] |
| 50 to 150 nM | COc1cc(N2CCN(C)CC2)ccc1Nc1ncc2c(n1)-n1ccc(C(=O)Nc3c(C)cccc3F)c1CC2 [Example 24, N-(2-fluoro-6-methyl-phenyl)-2-[2-methoxy-4-(4-methylpiperazin-1-yl)anilino]-5,6-dihydropyrimido[4,5-e]indolizine-7-carboxamide] |
| 50 to 150 nM | COc1cc(N2CCN(C)CC2)ccc1Nc1ncc2c(n1)-n1ccc(C(=O)Nc3c(C)ccnc3Cl)c1CC2 [Example 25, N-(2-chloro-4-methyl-3-pyridyl)-2-[2-methoxy-4-(4-methylpiperazin-1-yl)anilino]-5,6-dihydropyrimido[4,5-e]indolizine-7-carboxamide] |

| SMILES | IC50 |
| --- | --- |
| COc1cc(OC2CCN(C)CC2)ccc1Nc1ncc2c(n1)-n1ccc(C(=O)Nc3c(C)n[nH]c3C)c1CC2 [Example 15, N-(3,5-dimethyl-1H-pyrazol-4-yl)-2-[2-methoxy-4-[(1-methyl-4-piperidyl)oxy]anilino]-5,6-dihydropyrimido[4,5-e]indolizine-7-carboxamide] | 50 to 150 nM |
| COCCn1nc(C)c(NC(=O)c2ccn3c2CCc2cnc(Nc4ccc(N5CCNCC5)cc4OC)nc2-3)c1C [Example 16, N-[1-(2-methoxyethyl)-3,5-dimethyl-pyrazol-4-yl]-2-(2-methoxy-4-piperazin-1-yl-anilino)-5,6-dihydropyrimido[4,5-e]indolizine-7-carboxamide] | 50 to 150 nM |
| CCc1cccc(CC)c1NC(=O)c1ccn2c1CCc1cnc(Nc3ccc(N4CCN(C)CC4)cc3OC)nc1-2 [Example 20, N-(2,6-diethylphenyl)-2-[2-methoxy-4-(4-methylpiperazin-1-yl)anilino]-5,6-dihydropyrimido[4,5-e]indolizine-7-carboxamide] | 50 to 150 nM |
